The record followed here is patent publication US20230365582A1, “NOVEL COMPOUNDS HAVING INHIBITORY ACTIVITY ON PROSTAGLANDIN E2 RECEPTOR AND USES THEREOF” (KANAPH THERAPEUTICS INC., priority 2020, published 2023).

The IC50 is the concentration that inhibits the measured activity by half.

The target in one test is T1, hEP4 (Homo sapiens, UniProt P35408).
T1 construct: expressed in transfected cells; host or cells: HEK293
The test can be described thus: hEP4 cAMP assay. The class given is cell-based. Particulars: HEK293 cells overexpressing hEP4; PGE2 agonist 20 nM; graded per Table 21; read-out: IC50 (nM) EP4 cAMP. A digest of the protocol:
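HEK293 cells overexpressing hEP4, starved 4 h, were treated with compound (10 μM-0.001 nM) plus 20 nM PGE2 (EC50-80) in HBSS buffer with 0.5 mM IBMX for 18.5 min at room temperature. cAMP was read by TR-FRET (665/615 nm) as % of DMSO control; IC50 from 4-parameter fit, median of multiple experiments.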
On the technique in general: Changes in cAMP serve as a functional read-out for many G protein-coupled receptors.

A further test addresses T2, hEP2 (Homo sapiens, UniProt P43116).
T2 construct: expressed in transfected cells; host or cells: HEK293
Kind of test: hEP2 cAMP assay. It counts as cell-based. Particulars: HEK293 cells overexpressing hEP2; PGE2 agonist 400 pM; graded per Table 21; read-out: IC50 (nM) EP2 cAMP. A digest of the protocol:
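HEK293 cells overexpressing hEP2, serum-starved 4 h, then 1,000 cells/well treated with compound (10 μM–0.001 nM) plus 400 pM PGE2 (about EC50-80) in HBSS buffer with 0.5 mM IBMX for 12 min at room temperature. cAMP measured by TR-FRET (665/615 nm) as % of DMSO control; IC50 from 4-parameter fit, median of repeats.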

T1 sequence (P35408 whole entry): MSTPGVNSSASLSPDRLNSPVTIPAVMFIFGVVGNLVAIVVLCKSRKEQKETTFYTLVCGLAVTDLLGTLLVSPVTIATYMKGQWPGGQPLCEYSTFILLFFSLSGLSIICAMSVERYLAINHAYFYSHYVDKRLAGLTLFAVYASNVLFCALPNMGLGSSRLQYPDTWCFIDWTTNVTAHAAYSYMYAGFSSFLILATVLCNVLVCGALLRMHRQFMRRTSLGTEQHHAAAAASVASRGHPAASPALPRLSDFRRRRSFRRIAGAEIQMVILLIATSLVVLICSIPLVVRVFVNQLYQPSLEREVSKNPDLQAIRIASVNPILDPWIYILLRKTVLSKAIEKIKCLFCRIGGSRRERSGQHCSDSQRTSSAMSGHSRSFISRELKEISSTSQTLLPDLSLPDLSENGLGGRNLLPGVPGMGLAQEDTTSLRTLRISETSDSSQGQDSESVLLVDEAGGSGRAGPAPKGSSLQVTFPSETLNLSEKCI
T2 sequence (P43116 whole entry): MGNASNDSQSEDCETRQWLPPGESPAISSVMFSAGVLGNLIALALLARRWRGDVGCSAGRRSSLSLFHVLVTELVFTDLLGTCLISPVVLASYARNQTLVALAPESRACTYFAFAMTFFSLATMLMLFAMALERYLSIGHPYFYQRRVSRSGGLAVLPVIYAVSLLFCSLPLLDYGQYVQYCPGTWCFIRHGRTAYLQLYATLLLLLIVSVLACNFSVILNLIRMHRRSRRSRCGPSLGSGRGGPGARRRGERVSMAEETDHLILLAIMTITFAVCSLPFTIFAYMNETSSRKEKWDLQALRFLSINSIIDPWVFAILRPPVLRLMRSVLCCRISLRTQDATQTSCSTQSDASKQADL

On to `Cc1sc(C)c(C(=O)NC2CC3(C2)CC(C(=O)O)C3)c1Cc1ccc(-c2cc(F)cc(S(C)(=O)=O)c2)cc1` (stereo not drawn) [Example 56, 6-(4-((3′-fluoro-5′-(methylsulfonyl)-[1,1′-biphenyl]-4-yl)methyl)-2,5-dimethylthiophene-3-carboxamido)spiro[3.3]heptane-2-carboxylic acid], for which the values for the IC50 at hEP4 and at hEP2 were 5000 to 10000 nM and greater than 10000 nM, respectively.

With `Cc1sc(C)c(C(=O)NC2CC3(C2)CC(C(=O)O)C3)c1Cc1ccc(-c2cc(F)cc(C(N)=O)c2)cc1` (stereo not drawn) [Example 57, 6-(4-((3′-carbamoyl-5′-fluoro-[1,1′-biphenyl]-4-yl)methyl)-2,5-dimethylthiophene-3-carboxamido)spiro[3.3]heptane-2-carboxylic acid], the values for the IC50 on hEP4 and at hEP2 were less than 500 nM and 500 to 5000 nM, respectively.

Take `COc1cc(C(N)=O)cc(-c2ccc(Cc3c(C)sc(C)c3C(=O)NC3CC4(C3)CC(C(=O)O)C4)cc2)c1` (stereo not drawn) [Example 58, 6-(4-((3′-carbamoyl-5′-methoxy-[1,1′-biphenyl]-4-yl)methyl)-2,5-dimethylthiophene-3-carboxamido)spiro[3.3]heptane-2-carboxylic acid]: the IC50 was less than 500 nM at hEP4 and 500 to 5000 nM on hEP2.

For `COc1cc(CNC(=O)OC(C)(C)C)cc(-c2ccc(Cc3c(C)sc(C)c3C(=O)NC3CC4(C3)CC(C(=O)O)C4)cc2)c1` (stereo not drawn) [Example 59, 6-(4-((3′-(((tert-butoxycarbonyl)amino)methyl)-5′-methoxy-[1,1′-biphenyl]-4-yl)methyl)-2,5-dimethylthiophene-3-carboxamido)spiro[3.3]heptane-2-carboxylic acid], the concentration for half-maximal inhibition (IC50) at hEP4 was 500 to 5000 nM; on hEP2 it was greater than 10000 nM.

`Cc1sc(C)c(C(=O)NC2CC3(C2)CC(C(=O)O)C3)c1Cc1ccc(-c2cc(F)cc(CO)c2)cc1` (stereo not drawn) [Example 60, 6-(4-((3′-fluoro-5′-(hydroxymethyl)-[1,1′-biphenyl]-4-yl)methyl)-2,5-dimethylthiophene-3-carboxamido)spiro[3.3]heptane-2-carboxylic acid]: the IC50 at hEP4 is less than 500 nM; at hEP2, 5000 to 10000 nM.

For the molecule `COc1cc(-c2ccc(Cc3c(C)sc(C)c3C(=O)NC3CC4(C3)CC(C(=O)O)C4)cc2)cc(C2(O)COC2)c1` (stereo not drawn) [Example 61, 6-(4-((3′-(3-hydroxyoxetane-3-yl)-5′-methoxy-[1,1′-biphenyl]-4-yl)methyl)-2,5-dimethylthiophene-3-carboxamido)spiro[3.3]heptane-2-carboxylic acid], the IC50 on hEP4 was 500 to 5000 nM; at hEP2, greater than 10000 nM.

Regarding `COc1cc(-c2ccc(Cc3c(C)sc(C)c3C(=O)NC3CC4(C3)CC(C(=O)O)C4)cc2)cc(N2CCC2=O)c1` (stereo not drawn) [Example 62, 6-(4-((3′-methoxy-5′-(2-oxoazetidin-1-yl)-[1,1′-biphenyl]-4-yl)methyl)-2,5-dimethylthiophene-3-carboxamido)spiro[3.3]heptane-2-carboxylic acid], the IC50 at hEP4 was less than 500 nM; at hEP2 it was 500 to 5000 nM.

Consider `[H][C@]1(C(=O)O)C[C@]2(C[C@H](NC(=O)c3c(C)sc(C)c3Cc3ccc(-c4cc(OC)cc(N5CCC5=O)c4)cc3)C2)C1` (stereo partly drawn) [Example 63, (2R,4R,6R)-6-(4-((3′-methoxy-5′-(2-oxoazetidin-1-yl)-[1,1′-biphenyl]-4-yl)methyl)-2,5-dimethylthiophene-3-carboxamido)spiro[3.3]heptane-2-carboxylic acid], for which the IC50 at hEP4 and on hEP2 was less than 500 nM in each case.

`Cc1sc(C)c(C(=O)NC2CC3(C2)CC(C(=O)O)C3)c1Cc1ccc(-c2cc(F)cc(CN)c2)cc1` (stereo not drawn) [Example 64, 6-(4-((3′-(aminomethyl)-5′-fluoro-[1,1′-biphenyl]-4-yl)methyl)-2,5-dimethylthiophene-3-carboxamido)spiro[3.3]heptane-2-carboxylic acid]: the IC50 is 500 to 5000 nM at hEP4 and greater than 10000 nM on hEP2.

Take `Cc1sc(C)c(C(=O)NC2CC3(C2)CC(C(=O)O)C3)c1Cc1ccc(-c2cc(F)cc(C3CNC3)c2)cc1` (stereo not drawn) [Example 65, 6-(4-((3′-(azetidin-3-yl)-5′-fluoro-[1,1′-biphenyl]-4-yl)methyl)-2,5-dimethylthiophene-3-carboxamido)spiro[3.3]heptane-2-carboxylic acid]: the IC50 at hEP4 is 500 to 5000 nM; on hEP2, greater than 10000 nM.

As for `COc1cc(CN)cc(-c2ccc(Cc3c(C)sc(C)c3C(=O)NC3CC4(C3)CC(C(=O)O)C4)cc2)c1` (stereo not drawn) [Example 66, 6-(4-((3′-(aminomethyl)-5′-methoxy-[1,1′-biphenyl]-4-yl)methyl)-2,5-dimethylthiophene-3-carboxamido)spiro[3.3]heptane-2-carboxylic acid], the IC50 was 500 to 5000 nM on hEP4 and greater than 10000 nM at hEP2.

With `Cc1sc(C)c(C(=O)NC2CC3(C2)CC(C(=O)O)C3)c1Cc1ccc(C2CCCCC2)cc1` (stereo not drawn) [Example 67, 6-(4-(4-cyclohexylbenzyl)-2,5-dimethylthiophene-3-carboxamido)spiro[3.3]heptane-2-carboxylic acid], the IC50 at hEP4 was 5000 to 10000 nM; on hEP2 it was greater than 10000 nM.

`Cc1sc(C)c(C(=O)NC2CC3(C2)CC(C(=O)O)C3)c1Cc1ccc(C2CCNCC2)cc1` (stereo not drawn) [Example 68, 6-(2,5-dimethyl-4-(4-(piperidin-4-yl)benzyl)thiophene-3-carboxamido)spiro[3.3]heptane-2-carboxylic acid]: the IC50 at hEP4 and on hEP2 was greater than 10000 nM each time.

Consider `Cc1sc(C)c(C(=O)NC2CC3(C2)CC(C(=O)O)C3)c1Cc1ccc(-c2ccc(F)cc2)cc1` (stereo not drawn) [Example 69, 6-(4-((4′-fluoro-[1,1′-biphenyl]-4-yl)methyl)-2,5-dimethylthiophene-3-carboxamido)spiro[3.3]heptane-2-carboxylic acid], for which the IC50 on hEP4 was less than 500 nM; on hEP2, 500 to 5000 nM.

Take `Cc1sc(C)c(C(=O)NC2CC3(C2)CC(C(=O)O)C3)c1Cc1ccc(-c2cc(F)cc(C#N)c2)cc1` (stereo not drawn) [Example 70, 6-(4-((3′-cyano-5′-fluoro-[1,1′-biphenyl]-4-yl)methyl)-2,5-dimethylthiophene-3-carboxamido)spiro[3.3]heptane-2-carboxylic acid]: the figures for the IC50 at hEP4 and at hEP2 were less than 500 nM and 5000 to 10000 nM, respectively.

`Cc1sc(C)c(C(=O)NC2CC3(C2)CC(C(=O)O)C3)c1Cc1ccc(-c2cc(O)cc(F)c2)cc1` (stereo not drawn) [Example 71, 6-(4-((3′-fluoro-5′-hydroxy-[1,1′-biphenyl]-4-yl)methyl)-2,5-dimethylthiophene-3-carboxamido)spiro[3.3]heptane-2-carboxylic acid]: the IC50 on hEP4 was less than 500 nM; on hEP2 it was 500 to 5000 nM.

On to `Cc1sc(C)c(C(=O)NC2CC3(C2)CC(C(=O)O)C3)c1Cc1ccc(-c2ccnc(O)c2)cc1` (stereo not drawn) [Example 72, 6-(4-(4-(2-hydroxypyridin-4-yl)benzyl)-2,5-dimethylthiophene-3-carboxamido)spiro[3.3]heptane-2-carboxylic acid], for which the IC50 at hEP4 and on hEP2 was greater than 10000 nM throughout.

As to `Cc1sc(C)c(C(=O)N(C)C2CC3(CC(C(=O)O)C3)C2)c1Cc1ccc(-c2ccccc2)cc1` (stereo not drawn) [Example 73, 6-(4-([1,1′-biphenyl]-4-ylmethyl)-N,2,5-trimethylthiophene-3-carboxamido)spiro[3.3]heptane-2-carboxylic acid], the IC50 on hEP4 and on hEP2 was greater than 10000 nM each time.
